Assay results reported in patent US20230391765A1, “HETEROBIFUNCTIONAL COMPOUNDS AS DEGRADERS OF ENL” (ICAHN SCHOOL OF MEDICINE AT MOUNT SINAI, priority 2020, published 2023).

How the values were obtained:
[1] = target: T1, ENL (Homo sapiens, UniProt Q03111); test: Western blot of ENL protein levels in MV4; 11 cells; type: cell-based
T1 construct: Cells were lysed and expression of endogenous ENL was assessed by Western blot analysis; host or cells: MV4;11
T1 sequence (Q03111 1-559): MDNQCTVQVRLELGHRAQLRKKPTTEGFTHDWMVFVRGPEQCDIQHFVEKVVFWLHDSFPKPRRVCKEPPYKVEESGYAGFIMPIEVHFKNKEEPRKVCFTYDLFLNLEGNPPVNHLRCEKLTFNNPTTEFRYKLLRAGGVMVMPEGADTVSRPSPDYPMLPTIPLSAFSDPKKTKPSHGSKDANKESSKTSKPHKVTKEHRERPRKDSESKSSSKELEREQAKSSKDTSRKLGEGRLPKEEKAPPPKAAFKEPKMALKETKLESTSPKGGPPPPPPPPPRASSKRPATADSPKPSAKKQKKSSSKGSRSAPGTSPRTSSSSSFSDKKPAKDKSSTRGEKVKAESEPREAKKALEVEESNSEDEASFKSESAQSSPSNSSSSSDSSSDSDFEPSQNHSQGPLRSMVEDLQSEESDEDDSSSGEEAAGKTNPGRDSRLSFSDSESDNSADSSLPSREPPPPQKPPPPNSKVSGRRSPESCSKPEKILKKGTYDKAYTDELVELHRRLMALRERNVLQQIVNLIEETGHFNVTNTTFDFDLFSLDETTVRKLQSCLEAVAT
Procedure, shortened: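 MV4;11 cells treated versus DMSO at 1 and 10 μM for 24 h or 6 h, or at 0.3-30 μM for 24 h; time course at 4 μM over 12-36 h. Proteasome dependence tested with 1 μM degrader ± 1 μM MG132 for 6 h. ENL (and GAS41) levels in total lysates assessed by Western blot with GAPDH/β-actin loading controls.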

[2] = tested on: MV4; 11-Luc cells; test: MV4; 11 disseminated xenograft model, bioluminescence imaging; type: in vivo; conditions: NSG mice with MV4, 100 mg/kg twice daily IP, three cycles (4 treatment days, 2 resting days)
Procedure: Immuno-deficient NSG mice were irradiated and transplanted with 5×10^5 MV4; 11-Luc cells through tail-vein injections. Ten days after transplantation, mice (n=5) were treated with 100 mg/kg LQ076-122 or vehicle twice daily through IP injection in cycles. Each cycle contains 4 treatment days followed by 2 resting days. Day 0 is the time that the treatment started. Leukemia progression was monitored by bioluminescence imaging at different time points upon LQ076-122 or vehicle treatment (FIG. 18A). The mean radiances of bioluminescence signal were quantified in FIG. 18B.
Immunodeficient NOD.Cg-Prkdc^scidIl2rg^tm1wil/SzJ (NSG) mice at 6-8 weeks of age were produced at the Van Andel Institute Vivarium and Transgenic Core using breeders purchased from the Jackson laboratory. Mice were pretreated with acidified water and antibiotics for a week before a sublethal dose of total body irradiated (2 Gy). Then mice were transplanted with 0.5×10^6 MV4; 11-Luc cells through tail-vein injection. ENL degrader treatment was started ten days after transplantation with the successful engraftment confirmed by bioluminescence imaging. Mice were randomly assigned to two groups (n=5) and treated with IP injections of either ENL degrader LQ076-122 (100 mg/kg, twice daily) or vehicle. […] Leukemia progression in each animal was monitored by bioluminescence imaging after each treatment cycle. […]

[3] = target: T1, ENL; test: Western blot of ENL protein levels in MOLM13 cells; type: cell-based
Procedure, shortened: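 Leukemia cells (MOLM13, MV4;11, Jurkat) treated with degraders in DMSO at 0–10 μM for 6 h or 24 h, or at 4 μM (MV4;11) / 8 μM (MOLM13) over 12–36 h. ENL levels read by Western blot of total lysates, GAPDH/β-actin loading controls; DMSO vehicle control.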

Cc1ncsc1-c1ccc(CNC(=O)[C@@H]2C[C@@H](O)CN2C(=O)[C@@H](NC(=O)CCCCCCCCCCNC(=O)c2ccc(C(=O)Nc3ccc4[nH]c(CN5CCC[C@@H]5C)nc4c3)cc2)C(C)(C)C)cc1 [LQ076-122, N^1-(11-(((S)-1-((2S,4R)-4-hydroxy-2-((4-(4-methylthiazol-5-yl)benzyl)carbamoyl)pyrrolidin-1-yl)-3,3-dimethyl-1-oxobutan-2-yl)amino)-11-oxoundecyl)-N^4-(2-(((S)-2-methylpyrrolidin-1-yl)methyl)-1H-benzo[d]imidazol-5-yl)terephthalamide]
reduction of ENL protein levels ([1]; 11 cells, 0-8 μM for 24 h): reduced ENL protein levels in a concentration-dependent manner | reduction of ENL protein levels, time course ([1]; 11 cells, 4 μM for 12, 16, 20, 24 and 36 h): reduced ENL protein levels in a time-dependent manner | reduction of ENL protein levels ([1]; 11 cells, 10 μM, 24 h): effective in reducing ENL protein levels | reduction of ENL protein level ([1]; 11 cells, 0.3, 1, 3, 10 and 30 μM for 24 h): selectively reduced the ENL protein level | reduction of ENL protein levels ([1]; 11 cells, 0.3, 1, 3 and 10 μM for 12 and 24 h): reduced ENL protein levels in a concentration- and time-dependent manner | leukemia progression [2]: significantly inhibited leukemia progression | reduction of ENL protein levels ([3]; 0-8 μM for 24 h): reduced ENL protein levels in a concentration-dependent manner | reduction of ENL protein levels, time course ([3]; 8 μM for 12, 16, 20, 24 and 36 h): reduced ENL protein levels in a time-dependent manner
